Holding throughout (type): biochemical
One experiment has as its target HDAC1 (Homo sapiens (Human), UniProt Q13547). As to the kind of experiment: HDAC enzyme assay, HDAC1. As to conditions: 24 hours pre-incubation with enzyme; read-out: IC50 (nM) HDAC1. The protocol: (§1) Compounds for testing were diluted in DMSO to 50 fold the final concentration and a ten point three fold dilution series was made. The compounds were diluted in assay buffer (50 mM HEPES, pH 7.4, 100 mM KCl, 0.001% Tween-20, 0.05% BSA, 20 μM tris(2-carboxyethyl)phosphine) to 6 fold their final concentration. The HDAC enzymes (purchased from BPS Biosciences) were diluted to 1.5 fold their final concentration in assay buffer and pre-incubated with the compounds for 24 hours prior to addition of the substrate.
(§2) The substrate tripeptide substrate 3 (synthesized in house) for each enzyme was equal to the Km as determined by a substrate titration curve. The substrates were diluted in assay buffer at 6× their final concentration with 0.3 μM sequencing grade trypsin (Sigma). The substrate/trypsin mix was added to the enzyme/compound mix, the plate was shaken for 60 seconds and placed into a Spectramax M5 microtiter plate reader. The development of fluorescence was monitored for 30 min and the linear rate of the reaction was calculated. The IC50 was determined using Graph Pad Prism by a four parameter curve fit. The IC50 values obtained for the compounds of this invention are found in Table 1. Examples of the curves are found in FIGS. 1 and 4.

The next experiment addresses HDAC2 (Homo sapiens (Human), UniProt Q92769). As to the kind of experiment: HDAC enzyme assay, HDAC2. Conditions: 24 hours pre-incubation with enzyme; read-out: IC50 (nM) HDAC2. The protocol:
as §1, §2

The target in the next experiment is HDAC3 (Homo sapiens (Human), UniProt O15379). As to the kind of experiment: HDAC enzyme assay, HDAC3. Conditions: 24 hours pre-incubation with enzyme; read-out: IC50 (nM) HDAC3. The protocol:
as §1, §2

From patent publication US9790180B2, “Piperidine derivatives as HDAC1/2 inhibitors” (Acetylon Pharmaceuticals, Inc., priority 2014, dated 2017) come the findings set out here.

Bounds are passed on as bounds.

Sequence of HDAC3 (O15379 whole entry): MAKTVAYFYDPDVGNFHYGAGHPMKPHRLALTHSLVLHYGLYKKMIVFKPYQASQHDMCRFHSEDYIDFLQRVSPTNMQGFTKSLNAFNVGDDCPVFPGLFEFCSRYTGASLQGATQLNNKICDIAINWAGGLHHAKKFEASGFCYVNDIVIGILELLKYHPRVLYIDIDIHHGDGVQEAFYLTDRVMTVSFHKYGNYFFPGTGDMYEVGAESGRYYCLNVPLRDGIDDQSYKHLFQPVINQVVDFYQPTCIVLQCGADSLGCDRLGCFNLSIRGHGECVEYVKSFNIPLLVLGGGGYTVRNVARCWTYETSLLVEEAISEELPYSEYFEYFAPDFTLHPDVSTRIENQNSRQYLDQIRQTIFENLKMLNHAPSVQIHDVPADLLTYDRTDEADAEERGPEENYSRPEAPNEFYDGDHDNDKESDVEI
Sequence of HDAC3 (Q9Y618 395-489 partner): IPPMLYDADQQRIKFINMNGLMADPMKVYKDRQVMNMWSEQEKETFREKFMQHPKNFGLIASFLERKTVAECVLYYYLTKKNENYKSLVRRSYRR
Sequence of HDAC2 (Q92769 whole entry): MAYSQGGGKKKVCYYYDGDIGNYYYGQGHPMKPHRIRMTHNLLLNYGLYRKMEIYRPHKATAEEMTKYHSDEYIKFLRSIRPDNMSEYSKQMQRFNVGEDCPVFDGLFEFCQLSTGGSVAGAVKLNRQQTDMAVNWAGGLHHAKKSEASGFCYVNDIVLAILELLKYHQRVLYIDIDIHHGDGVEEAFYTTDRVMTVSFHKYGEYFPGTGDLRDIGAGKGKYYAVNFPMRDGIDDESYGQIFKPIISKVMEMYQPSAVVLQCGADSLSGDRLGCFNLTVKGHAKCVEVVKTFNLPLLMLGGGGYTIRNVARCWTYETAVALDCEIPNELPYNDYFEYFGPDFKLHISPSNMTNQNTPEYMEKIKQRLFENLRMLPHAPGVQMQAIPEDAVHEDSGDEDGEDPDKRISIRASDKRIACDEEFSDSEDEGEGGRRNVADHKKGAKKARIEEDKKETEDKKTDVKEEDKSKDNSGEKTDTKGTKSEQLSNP
Sequence of HDAC1 (Q13547 whole entry): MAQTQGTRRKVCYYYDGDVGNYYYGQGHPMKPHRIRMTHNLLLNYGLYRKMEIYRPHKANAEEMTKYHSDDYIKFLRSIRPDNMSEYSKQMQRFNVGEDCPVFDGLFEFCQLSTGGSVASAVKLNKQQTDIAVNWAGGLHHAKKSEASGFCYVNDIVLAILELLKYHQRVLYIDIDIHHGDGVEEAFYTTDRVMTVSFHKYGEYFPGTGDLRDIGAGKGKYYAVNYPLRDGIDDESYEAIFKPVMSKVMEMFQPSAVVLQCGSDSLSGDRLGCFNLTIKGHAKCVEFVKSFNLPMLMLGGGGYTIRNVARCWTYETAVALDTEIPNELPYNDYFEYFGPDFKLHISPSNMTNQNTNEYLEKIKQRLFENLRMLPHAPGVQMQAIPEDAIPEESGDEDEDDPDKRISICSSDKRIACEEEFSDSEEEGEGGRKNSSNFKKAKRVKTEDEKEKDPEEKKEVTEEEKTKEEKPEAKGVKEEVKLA

In the case of `Nc1ccc(-c2cccs2)cc1NC(=O)c1cnc(N2CCCC23CCN(C(=O)N2CCCC2)CC3)nc1` [Compound 018], the IC50 on HDAC1 came to 12 nM; at HDAC2, 78 nM; on HDAC3, 516 nM.

Turning to `Nc1ccc(-c2cccs2)cc1NC(=O)c1ccc(NC2CCN(C(=O)N3CCOCC3)CC2)cc1` [Compound 020], the IC50 at HDAC1 was found to be 3.7 nM; on HDAC2, 17 nM; on HDAC3, 304 nM.

For `Nc1ccc(-c2ccncc2)cc1NC(=O)c1ccc(NC2CCN(C(=O)N3CCCC3)CC2)cc1` [Compound 032], the IC50 on HDAC1 was 17 nM; at HDAC2, 20 nM; on HDAC3 it was 397 nM.

As for `CN1CCC(Nc2ncc(C(=O)Nc3cc(-c4ccccc4)ccc3N)cn2)c2ccccc21` (stereo not shown) [Compound 042], the values for the IC50 at HDAC1, at HDAC2 and at HDAC3 were 210 nM, 714 nM and over 2000 nM, respectively.

On to `Nc1ccc(-c2cccs2)cc1NC(=O)c1ccc(NC2CCN(C(=O)C3(O)CCCCC3)CC2)cc1` [Compound 024], for which the IC50 at HDAC1 was 6 nM; on HDAC2, 26 nM; at HDAC3 it was 287 nM.

Regarding `CCC1(Nc2ccc(C(=O)Nc3cc(-c4cccs4)ccc3N)cc2)CCN(C(=O)N2CCNCC2)CC1` [Compound 023], the IC50 at HDAC1 turned out to be 3.9 nM; on HDAC2, 20 nM; at HDAC3, 267 nM.

In the case of `CC1(Nc2ncc(C(=O)Nc3cc(-c4cccs4)ccc3N)cn2)CCN(C(=O)N2CCNCC2)CC1` [Compound 010], the results for the IC50 on HDAC1 and at HDAC2 were 7.3 nM and 26 nM, respectively.

As to `Cc1[nH]c2ccccc2c1CC(=O)N1CCC(N(c2ccccc2)c2ncc(C(=O)Nc3cc(-c4ccccc4)ccc3N)cn2)CC1` [Compound 036], the IC50 on HDAC1 is 74 nM; at HDAC2, 996 nM; at HDAC3, over 2000 nM.

Regarding `CC1(Nc2ccc(C(=O)Nc3cc(-c4ccncc4)ccc3N)cc2)CCN(C(=O)N2CCOCC2)CC1` [Compound 029], the values for the IC50 on HDAC2 and at HDAC3 were 17 nM and 541 nM, respectively.

Take `CC1(Nc2ncc(C(=O)Nc3cc(-c4cccs4)ccc3N)cn2)CCN(C(=O)N2CCC(F)(F)CC2)CC1` [Compound 012]: the concentration for half-maximal inhibition (IC50) at HDAC1 was 19 nM; at HDAC2, 177 nM; at HDAC3, 1270 nM.

On to `CC1(Nc2ccc(C(=O)Nc3cc(-c4ccccc4)ccc3N)cc2C2CC2)CCN(C(=O)N2CCOCC2)CC1` [Compound 037], for which the IC50 at HDAC1 is 432 nM; on HDAC2, 377 nM; at HDAC3, 1860 nM.

As to `CN1CCC(Nc2ncc(C(=O)Nc3cc(-c4ccccc4)ccc3N)cn2)CC1` [Compound 040], the IC50 on HDAC1 was determined as 8 nM; on HDAC2, 39 nM; at HDAC3, 277 nM.

On to `Nc1ccc(-c2ccccc2)cc1NC(=O)c1cnc(NC2CCNc3ccccc32)nc1` (stereo not shown) [Compound 038], for which the values for the 50% inhibitory concentration (IC50) at HDAC1, on HDAC2 and on HDAC3 were 101 nM, 319 nM and over 2000 nM, respectively.

Take `CC1(Nc2ccc(C(=O)Nc3cc(-c4cccnc4)ccc3N)cc2)CCN(C(=O)N2CCOCC2)CC1` [Compound 031]: the half-inhibitory concentration (IC50) at HDAC1 turned out to be 91 nM; on HDAC2 it was 71 nM; on HDAC3, 264 nM.

As to `CC1(Nc2ccc(C(=O)Nc3cc(-c4cccs4)ccc3N)cc2)CCN(C(=O)N2CCCC2)CC1` [Compound 013], the concentration for half-maximal inhibition (IC50) on HDAC1 stood at 4 nM; on HDAC2, 14 nM; at HDAC3, 412 nM.

Take `Nc1ccc(-c2cccs2)cc1NC(=O)c1ccc(NC2CCN(C(=O)C3CCCCC3)CC2)cc1` [Compound 021]: the IC50 on HDAC1 was 15 nM; on HDAC2, 72 nM; at HDAC3 it was 555 nM.

For the compound `Nc1ccc(-c2cccs2)cc1NC(=O)c1ccc(NC2CCN(C(=O)C3(O)CCCC3)CC2)cc1` [Compound 025], the IC50 on HDAC1 was 7 nM; at HDAC2, 26 nM; on HDAC3 it was 355 nM.

For `CCC1(Nc2ccc(C(=O)Nc3cc(-c4cccs4)ccc3N)cc2)CCN(C(=O)N2CCOCC2)CC1` [Compound 017], the IC50 came out at 18 nM at HDAC1, 99 nM on HDAC2 and 1740 nM at HDAC3.

For `Nc1ccc(-c2cccs2)cc1NC(=O)c1ccc(NC2CCN(C(=O)C3CCOCC3)CC2)cc1` [Compound 022], the IC50 at HDAC1 turned out to be 5 nM; at HDAC2 it was 18 nM; on HDAC3, 203 nM.

With `CC1(Nc2ccc(C(=O)Nc3cc(-c4cccs4)ccc3N)cc2)CCN(C(=O)N2CCNCC2)CC1` [Compound 015], the IC50 at HDAC1 was found to be 3.2 nM; at HDAC2, 12 nM; on HDAC3, 149 nM.

For the compound `Nc1ccc(-c2cccs2)cc1NC(=O)c1cnc(NC2CCN(c3ccccc3)CC2)nc1` [Compound 027], the IC50 at HDAC1 was 121 nM; at HDAC2, 690 nM; at HDAC3, over 2000 nM.

As for `CC1(Nc2ccc(C(=O)Nc3cc(-c4ccncc4)ccc3N)cc2)CCN(C(=O)N2CCCC2)CC1` [Compound 030], the IC50 at HDAC1 was 7.1 nM; on HDAC2, 9.4 nM; on HDAC3, 466 nM.

With `CN1CCN(C(=O)N2CCC(C)(Nc3ncc(C(=O)Nc4cc(-c5cccs5)ccc4N)cn3)CC2)CC1` [Compound 011], the IC50 at HDAC1 was 8.5 nM; at HDAC2 it was 32 nM; at HDAC3 it was 201 nM.

Consider `Nc1ccc(-c2ccccc2)cc1NC(=O)c1cnc(NC2CCNCC2)nc1` [Compound 039], for which the IC50 on HDAC1 came to 17 nM; at HDAC2 it was 59 nM; at HDAC3, 321 nM.

With `Nc1ccc(-c2ccccc2)cc1NC(=O)c1cnc(N(c2ccccc2)C2CCN(C(=O)Cc3c[nH]c4ccccc34)CC2)nc1` [Compound 034], the IC50 was 93 nM at HDAC1, 346 nM at HDAC2 and over 2000 nM at HDAC3.

Regarding `Nc1ccc(-c2cccs2)cc1NC(=O)c1cnc(NC2CCN(C(=O)N3CCCCC3)CC2)nc1` [Compound 009], the IC50 at HDAC1 was 32 nM; on HDAC2, 145 nM; on HDAC3 it was 250 nM.

Turning to `CN1CCC(Nc2ncc(C(=O)Nc3cc(-c4cccs4)ccc3N)cn2)(c2ccccc2)CC1` [Compound 026], the IC50 came out at 10 nM at HDAC1, 72 nM at HDAC2 and 315 nM at HDAC3.

Turning to `CC1(Nc2ncc(C(=O)Nc3cc(-c4cccs4)ccc3N)cn2)CCN(C(=O)N2CCC(O)CC2)CC1` [Compound 014], the IC50 is 63 nM on HDAC1, 299 nM at HDAC2 and over 2000 nM at HDAC3.

As to `Nc1ccc(-c2cccs2)cc1NC(=O)c1ccc(NC2CCN(c3ccccc3)CC2)cc1` [Compound 028], the IC50 at HDAC1 was 74 nM; at HDAC2 it was 443 nM; on HDAC3 it was over 2000 nM.

Regarding `CC1(Nc2ncc(C(=O)Nc3cc(-c4cccs4)ccc3N)cn2)CCN(C(=O)Oc2ccccc2)CC1` [Compound 007], the IC50 at HDAC1 is 118 nM; on HDAC2, 703 nM; on HDAC3, 929 nM.

With `CC1(Nc2ncc(C(=O)Nc3cc(-c4cccs4)ccc3N)cn2)CCN(C(=O)N2CCOCC2)CC1` [Compound 008], the IC50 at HDAC1 amounted to 9 nM; at HDAC2 it was 37 nM; on HDAC3, 124 nM.

In the case of `CN1CCN(C(=O)N2CCC(C)(Nc3ccc(C(=O)Nc4cc(-c5cccs5)ccc4N)cc3)CC2)CC1` [Compound 016], the half-maximal inhibitory concentration (IC50) on HDAC1 turned out to be 3.2 nM; at HDAC2, 13 nM; on HDAC3 it was 145 nM.

For orientation: IC50 means the concentration needed to halve the response being measured.
